pIC50: −log10 of the molar value.
Key:
[1] = target: 5'-AMP-activated protein kinase subunit gamma-1 (Homo sapiens, UniProt P54619); assay: Inhibition of AMPKG1
Cytochrome P450 2D6 = Cytochrome P450 2D6 (Homo sapiens, UniProt P10635); assay: Inhibition of CYP2D6 in human liver microsomes; format: ADME, Microsome
Cytochrome P450 1A2 = Cytochrome P450 1A2 (Homo sapiens, UniProt P05177); assay: Inhibition of CYP1A2 in human liver microsomes; format: ADME, Microsome
[2] = target: Rho-associated protein kinase 1 (Homo sapiens, UniProt Q13464); assay: Inhibition of ROCK1
[3] = target: RAC-alpha serine/threonine-protein kinase (Homo sapiens, UniProt P31749); assay: Inhibition of AKT1
[4] = target: Serine/threonine-protein kinase 26 (Homo sapiens, UniProt Q9P289); assay: Inhibition of MST4
[5] = Permeability from basolateral to apical side in human Caco2 cells; format: ADME, cell-based; details: Caco-2, read-out: permeability
[6] = Volume of distribution at steady state in Sprague-Dawley rat at 2 mg/kg, iv; format: ADME, organism-based; parameters: dose 2 mg/kg, route intravenous; details: in vivo, read-out: Vdss
[7] = target: Proto-oncogene tyrosine-protein kinase Src (Homo sapiens, UniProt P12931); assay: Inhibition of SRC
Cytochrome P450 2C9 = Cytochrome P450 2C9 (Homo sapiens, UniProt P11712); assay: Inhibition of CYP2C9 in human liver microsomes; format: ADME, Microsome
[8] = target: Death-associated protein kinase 3 (Homo sapiens, UniProt O43293); assay: Inhibition of DAPK3
Cytochrome P450 3A4 = Cytochrome P450 3A4 (Homo sapiens, UniProt P08684); assay: Inhibition of CYP3A4 in human liver microsomes; format: ADME, Microsome
Cytochrome P450 2C19 = Cytochrome P450 2C19 (Homo sapiens, UniProt P33261); assay: Inhibition of CYP2C19 in human liver microsomes; format: ADME, Microsome
[9] = target: Mitogen-activated protein kinase 13 (Homo sapiens, UniProt O15264); assay: Inhibition of p38delta
[10] = target: Tyrosine-protein kinase ABL1 (Homo sapiens, UniProt P00519); assay: Inhibition of ABL1
[11] = target: Serine/threonine-protein kinase Chk2 (Homo sapiens, UniProt O96017); assay: Inhibition of CHK2
[12] = Metabolic stability of the compound in rat liver microsomes assessed as compound remaining after 10 mins; format: ADME, Microsome; details: read-out: Stability
[13] = target: Cyclin-dependent kinase 1/cyclin B1 (Homo sapiens, UniProt P06493); assay: Inhibition of CDK1/cyclin B; format: protein-complex assay
[14] = target: Serine/threonine-protein kinase pim-2 (Homo sapiens, UniProt Q9P1W9); assay: Inhibition of PIM2
[15] = target: 5'-AMP-activated protein kinase subunit beta-1 (Homo sapiens, UniProt Q9Y478); assay: Inhibition of AMPKB1
[16] = target: Serine/threonine-protein kinase PAK 3 (Homo sapiens, UniProt O75914); assay: Inhibition of PAK3
Ephrin type-B receptor 1 = Ephrin type-B receptor 1 (Homo sapiens, UniProt P54762); assay: Inhibition of EPHB1
[17] = Clearance in Sprague-Dawley rat at 2 mg/kg, iv; format: ADME, organism-based; parameters: dose 2 mg/kg, route intravenous; details: in vivo
Activin receptor type-1B = Activin receptor type-1B (Homo sapiens, UniProt P36896); assay: Inhibition of ALK4
[18] = target: Protein kinase C theta type (Homo sapiens, UniProt Q04759); assay: Inhibition of PKCtheta
[19] = target: Interleukin-1 receptor-associated kinase 4 (Homo sapiens, UniProt Q9NWZ3); assay: Inhibition of IRAK4
[20] = Solubility of the compound in 10% aqueous Solutol; format: physicochemical
[21] = Half life in Sprague-Dawley rat at 2 mg/kg, iv; format: ADME, organism-based; parameters: dose 2 mg/kg, route intravenous; details: in vivo
[22] = target: Ribosomal protein S6 kinase alpha-3 (Homo sapiens, UniProt P51812); assay: Inhibition of RPS6KA3
[23] = target: Tyrosine-protein kinase JAK2 (Homo sapiens, UniProt O60674); assay: Inhibition of JAK2
[24] = target: Calcium/calmodulin-dependent protein kinase type 1D (Homo sapiens, UniProt Q8IU85); assay: Inhibition of CAMK1D
[25] = Cmax in Sprague-Dawley rat at 10 mg/kg, po; format: ADME, organism-based; parameters: dose 10 mg/kg, route oral; details: in vivo
[26] = Oral bioavailability in Sprague-Dawley rat at 10 mg/kg; format: ADME, organism-based; details: in vivo
[27] = Initial plasma concentration in Sprague-Dawley rat at 2 mg/kg, iv; format: ADME, organism-based; parameters: dose 2 mg/kg, route intravenous
[28] = target: Serine/threonine-protein kinase PLK3 (Homo sapiens, UniProt Q9H4B4); assay: Inhibition of PLK3
[29] = Half life in Sprague-Dawley rat at 10 mg/kg, po; format: ADME, organism-based; parameters: dose 10 mg/kg, route oral; details: in vivo
[30] = Permeability from apical to basolateral side in human Caco2 cells; format: ADME, cell-based; details: Caco-2, read-out: permeability
[31] = Metabolic stability of the compound in human liver microsomes assessed as compound remaining after 10 mins; format: ADME, Microsome; details: read-out: Stability
[32] = target: Calcium/calmodulin-dependent protein kinase type II subunit alpha (Homo sapiens, UniProt Q9UQM7); assay: Inhibition of CAMK2A
[33] = target: Serine/threonine-protein kinase Nek2 (Homo sapiens, UniProt P51955); assay: Inhibition of NEK2
Aurora kinase A = Aurora kinase A (Homo sapiens, UniProt O14965); assay: Inhibition of Aurora A
[34] = target: 5'-AMP-activated protein kinase catalytic subunit alpha-1 (Homo sapiens, UniProt Q13131); assay: Inhibition of AMPKA1
Ketohexokinase = target: T1, Ketohexokinase (Homo sapiens, UniProt P50053); assay: Inhibition of ketokinase isoform C in human HepG2 cells assessed as levels of fructose-1-phosphate preincubated for 30 mins followed by substrate addition measured after 3 hrs by LC-MS analysis; format: cell-based
T1 sequence (P50053 whole entry): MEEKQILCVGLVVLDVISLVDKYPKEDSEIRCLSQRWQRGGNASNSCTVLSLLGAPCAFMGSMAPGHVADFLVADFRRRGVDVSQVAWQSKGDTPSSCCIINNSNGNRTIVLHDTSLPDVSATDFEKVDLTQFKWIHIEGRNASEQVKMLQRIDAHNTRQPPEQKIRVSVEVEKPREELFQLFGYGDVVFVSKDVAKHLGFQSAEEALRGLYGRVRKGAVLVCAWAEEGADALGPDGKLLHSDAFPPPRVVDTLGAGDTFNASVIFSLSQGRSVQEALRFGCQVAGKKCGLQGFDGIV

[35] = target: Glycogen synthase kinase-3 beta (Homo sapiens, UniProt P49841); assay: Inhibition of GSK3beta
[36] = target: cAMP-dependent protein kinase catalytic subunit alpha (Homo sapiens, UniProt P17612); assay: Inhibition of PRKACA
[37] = target: High affinity nerve growth factor receptor (Homo sapiens, UniProt P04629); assay: Inhibition of NTRK1
[38] = target: Serine/threonine-protein kinase Chk1 (Homo sapiens, UniProt O14757); assay: Inhibition of CHK1

Chain of Serine/threonine-protein kinase PLK3 (Q9H4B4 whole entry): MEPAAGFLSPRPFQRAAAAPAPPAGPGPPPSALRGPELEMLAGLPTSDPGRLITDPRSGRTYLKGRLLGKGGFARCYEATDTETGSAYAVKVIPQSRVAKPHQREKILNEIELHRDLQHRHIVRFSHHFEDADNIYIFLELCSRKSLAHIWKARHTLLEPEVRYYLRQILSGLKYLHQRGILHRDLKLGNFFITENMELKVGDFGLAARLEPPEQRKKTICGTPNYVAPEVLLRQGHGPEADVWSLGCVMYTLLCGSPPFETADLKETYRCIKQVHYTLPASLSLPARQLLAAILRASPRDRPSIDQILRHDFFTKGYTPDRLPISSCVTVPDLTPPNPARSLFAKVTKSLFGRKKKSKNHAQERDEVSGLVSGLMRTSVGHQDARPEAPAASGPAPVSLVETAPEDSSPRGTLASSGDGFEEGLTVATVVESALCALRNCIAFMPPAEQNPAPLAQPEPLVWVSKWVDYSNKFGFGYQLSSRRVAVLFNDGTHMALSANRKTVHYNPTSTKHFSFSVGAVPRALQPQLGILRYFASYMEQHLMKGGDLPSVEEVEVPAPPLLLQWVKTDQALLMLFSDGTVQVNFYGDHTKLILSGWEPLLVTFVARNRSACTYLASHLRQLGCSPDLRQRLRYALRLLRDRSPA
Chain of Cytochrome P450 3A4 (P08684 whole entry): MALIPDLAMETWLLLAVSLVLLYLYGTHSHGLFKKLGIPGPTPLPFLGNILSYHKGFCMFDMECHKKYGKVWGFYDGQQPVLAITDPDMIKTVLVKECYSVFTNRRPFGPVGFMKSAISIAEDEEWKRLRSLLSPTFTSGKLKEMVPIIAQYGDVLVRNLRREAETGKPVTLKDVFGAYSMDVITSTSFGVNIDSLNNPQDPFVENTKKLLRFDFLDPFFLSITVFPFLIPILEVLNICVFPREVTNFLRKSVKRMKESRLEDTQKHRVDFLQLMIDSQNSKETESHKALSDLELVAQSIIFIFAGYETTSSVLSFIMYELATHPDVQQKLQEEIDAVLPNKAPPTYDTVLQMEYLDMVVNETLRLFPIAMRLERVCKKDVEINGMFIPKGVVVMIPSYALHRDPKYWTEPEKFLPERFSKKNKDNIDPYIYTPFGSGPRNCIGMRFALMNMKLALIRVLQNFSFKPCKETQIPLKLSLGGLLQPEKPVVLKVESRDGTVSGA
Chain of Cyclin-dependent kinase 1/cyclin B1 (P06493 whole entry): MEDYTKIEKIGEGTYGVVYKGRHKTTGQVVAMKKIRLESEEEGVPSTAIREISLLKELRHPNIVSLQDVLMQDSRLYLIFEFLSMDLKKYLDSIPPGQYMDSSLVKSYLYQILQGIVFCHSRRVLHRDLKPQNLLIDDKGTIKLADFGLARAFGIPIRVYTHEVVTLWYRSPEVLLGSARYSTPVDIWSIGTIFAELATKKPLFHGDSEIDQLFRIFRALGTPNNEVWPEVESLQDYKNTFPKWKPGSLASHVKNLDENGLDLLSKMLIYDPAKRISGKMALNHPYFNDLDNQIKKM
Chain of Cyclin-dependent kinase 1/cyclin B1 (P14635 whole entry, further chain): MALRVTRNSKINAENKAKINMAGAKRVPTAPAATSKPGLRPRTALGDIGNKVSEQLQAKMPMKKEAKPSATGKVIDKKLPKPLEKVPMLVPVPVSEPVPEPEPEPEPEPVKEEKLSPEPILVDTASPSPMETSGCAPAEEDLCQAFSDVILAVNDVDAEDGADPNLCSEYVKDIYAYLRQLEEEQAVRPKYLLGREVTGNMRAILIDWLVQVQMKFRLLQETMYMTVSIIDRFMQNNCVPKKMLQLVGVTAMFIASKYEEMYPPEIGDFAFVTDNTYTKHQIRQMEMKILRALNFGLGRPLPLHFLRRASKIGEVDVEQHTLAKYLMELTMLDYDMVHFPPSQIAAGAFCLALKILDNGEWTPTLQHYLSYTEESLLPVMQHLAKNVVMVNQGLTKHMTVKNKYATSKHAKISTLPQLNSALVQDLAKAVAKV
Chain of Ephrin type-B receptor 1 (P54762 whole entry): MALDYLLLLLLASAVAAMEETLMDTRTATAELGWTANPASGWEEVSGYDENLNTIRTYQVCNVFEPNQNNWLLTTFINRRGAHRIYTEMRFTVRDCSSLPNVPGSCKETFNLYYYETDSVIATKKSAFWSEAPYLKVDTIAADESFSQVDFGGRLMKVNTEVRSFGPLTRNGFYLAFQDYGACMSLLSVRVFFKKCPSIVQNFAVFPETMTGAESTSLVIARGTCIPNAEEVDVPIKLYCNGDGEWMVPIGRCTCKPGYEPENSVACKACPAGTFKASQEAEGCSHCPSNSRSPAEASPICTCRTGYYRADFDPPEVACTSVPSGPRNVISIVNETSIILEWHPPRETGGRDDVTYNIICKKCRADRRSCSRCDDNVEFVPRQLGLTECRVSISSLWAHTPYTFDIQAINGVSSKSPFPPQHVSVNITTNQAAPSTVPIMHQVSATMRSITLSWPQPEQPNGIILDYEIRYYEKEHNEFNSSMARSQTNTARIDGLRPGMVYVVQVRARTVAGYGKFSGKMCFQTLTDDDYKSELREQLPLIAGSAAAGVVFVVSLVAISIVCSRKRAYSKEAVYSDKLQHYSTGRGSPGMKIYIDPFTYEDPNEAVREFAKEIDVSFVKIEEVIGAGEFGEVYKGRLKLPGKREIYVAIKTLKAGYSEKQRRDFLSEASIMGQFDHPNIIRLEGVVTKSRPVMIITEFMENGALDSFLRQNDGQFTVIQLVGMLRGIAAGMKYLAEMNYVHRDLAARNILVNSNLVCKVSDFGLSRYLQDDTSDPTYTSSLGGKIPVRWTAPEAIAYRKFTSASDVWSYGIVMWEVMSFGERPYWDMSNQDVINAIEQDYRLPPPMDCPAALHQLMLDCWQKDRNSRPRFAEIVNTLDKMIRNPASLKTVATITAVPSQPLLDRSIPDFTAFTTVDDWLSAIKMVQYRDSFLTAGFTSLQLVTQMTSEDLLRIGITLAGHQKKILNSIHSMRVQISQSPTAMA
Chain of RAC-alpha serine/threonine-protein kinase (P31749 whole entry): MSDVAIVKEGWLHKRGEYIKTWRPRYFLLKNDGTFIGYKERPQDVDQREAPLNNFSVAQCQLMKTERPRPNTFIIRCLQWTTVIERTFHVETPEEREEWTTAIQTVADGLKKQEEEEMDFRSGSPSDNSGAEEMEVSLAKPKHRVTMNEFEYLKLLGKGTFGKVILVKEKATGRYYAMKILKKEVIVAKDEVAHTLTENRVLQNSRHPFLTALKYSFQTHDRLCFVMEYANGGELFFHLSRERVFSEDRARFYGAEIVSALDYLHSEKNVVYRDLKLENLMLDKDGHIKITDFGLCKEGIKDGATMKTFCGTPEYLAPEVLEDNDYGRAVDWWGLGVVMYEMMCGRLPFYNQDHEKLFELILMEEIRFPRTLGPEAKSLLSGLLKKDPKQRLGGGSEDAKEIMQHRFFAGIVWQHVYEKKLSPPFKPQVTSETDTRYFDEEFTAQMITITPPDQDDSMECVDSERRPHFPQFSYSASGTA
Chain of Mitogen-activated protein kinase 13 (O15264 whole entry): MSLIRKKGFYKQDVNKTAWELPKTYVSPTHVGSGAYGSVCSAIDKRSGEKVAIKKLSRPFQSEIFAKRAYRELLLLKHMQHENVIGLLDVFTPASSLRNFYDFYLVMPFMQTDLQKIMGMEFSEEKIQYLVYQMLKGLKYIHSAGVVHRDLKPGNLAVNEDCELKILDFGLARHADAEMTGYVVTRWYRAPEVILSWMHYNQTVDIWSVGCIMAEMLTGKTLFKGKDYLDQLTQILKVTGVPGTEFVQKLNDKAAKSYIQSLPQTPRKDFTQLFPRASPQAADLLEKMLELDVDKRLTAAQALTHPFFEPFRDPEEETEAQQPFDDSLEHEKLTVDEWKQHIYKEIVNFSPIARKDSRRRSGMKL
Chain of Death-associated protein kinase 3 (O43293 whole entry): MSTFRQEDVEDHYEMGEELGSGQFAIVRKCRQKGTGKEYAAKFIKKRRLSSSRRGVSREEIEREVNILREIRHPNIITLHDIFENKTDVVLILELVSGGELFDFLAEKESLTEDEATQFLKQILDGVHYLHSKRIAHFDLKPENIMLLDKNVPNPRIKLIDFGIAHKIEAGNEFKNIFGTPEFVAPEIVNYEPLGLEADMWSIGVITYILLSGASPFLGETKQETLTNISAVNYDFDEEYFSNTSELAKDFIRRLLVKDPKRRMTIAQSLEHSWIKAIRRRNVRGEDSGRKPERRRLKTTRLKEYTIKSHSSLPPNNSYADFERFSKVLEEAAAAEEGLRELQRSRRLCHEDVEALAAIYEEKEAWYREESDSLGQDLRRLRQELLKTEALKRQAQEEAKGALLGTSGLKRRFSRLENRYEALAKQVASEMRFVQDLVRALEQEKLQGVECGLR
Chain of 5'-AMP-activated protein kinase catalytic subunit alpha-1 (Q13131 whole entry, canonical isoform): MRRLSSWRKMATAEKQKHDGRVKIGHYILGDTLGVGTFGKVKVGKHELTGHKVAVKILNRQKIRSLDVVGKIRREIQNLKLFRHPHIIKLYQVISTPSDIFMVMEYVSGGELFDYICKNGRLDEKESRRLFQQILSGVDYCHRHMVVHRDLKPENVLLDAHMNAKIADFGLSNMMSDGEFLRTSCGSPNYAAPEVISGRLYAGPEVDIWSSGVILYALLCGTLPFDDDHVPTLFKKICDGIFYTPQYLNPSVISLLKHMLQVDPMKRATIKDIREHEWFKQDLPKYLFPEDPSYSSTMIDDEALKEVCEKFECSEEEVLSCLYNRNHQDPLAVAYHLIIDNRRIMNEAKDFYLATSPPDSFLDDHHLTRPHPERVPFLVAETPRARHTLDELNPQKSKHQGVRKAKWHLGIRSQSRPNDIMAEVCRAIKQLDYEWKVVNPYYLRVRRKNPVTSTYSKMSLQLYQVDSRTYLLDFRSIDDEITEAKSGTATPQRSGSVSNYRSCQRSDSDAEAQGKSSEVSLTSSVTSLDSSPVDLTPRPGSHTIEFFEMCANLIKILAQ
Chain of 5'-AMP-activated protein kinase subunit beta-1 (Q9Y478 whole entry): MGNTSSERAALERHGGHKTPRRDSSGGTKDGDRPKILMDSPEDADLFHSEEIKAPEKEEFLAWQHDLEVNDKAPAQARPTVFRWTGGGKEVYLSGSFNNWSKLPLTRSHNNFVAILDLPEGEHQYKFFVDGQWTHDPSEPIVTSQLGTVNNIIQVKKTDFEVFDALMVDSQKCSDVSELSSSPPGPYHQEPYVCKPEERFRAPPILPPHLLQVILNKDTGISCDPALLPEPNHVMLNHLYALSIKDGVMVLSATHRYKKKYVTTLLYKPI

CSc1ccccc1Nc1nc(N2CCNCC2)nc2c(NCC3CC3)ncnc12
600 nM: C0 [27]
72%: remaining at 10 min [12]
1 ×10⁻⁶ cm/s: Papp B→A [5]
160 mL/min/kg: clearance [17]
88%: remaining at 10 min [31]
1500 µg/mL: solubility [20]
6.40: pIC50 (Ketohexokinase)
< 4.40: pIC50 [1] | pIC50 [2] | pIC50 [3] | pIC50 [4] | pIC50 [7] | pIC50 [8] | pIC50 [9] | pIC50 [10] | pIC50 [11] | pIC50 [13] | pIC50 [14] | pIC50 [15] | pIC50 [16] | pIC50 (Ephrin type-B receptor 1) | pIC50 (Activin receptor type-1B) | pIC50 [18] | pIC50 [19] | pIC50 [22] | pIC50 [23] | pIC50 [24] | pIC50 [28] | pIC50 [32] | pIC50 [33] | pIC50 (Aurora kinase A) | pIC50 [34] | pIC50 [35] | pIC50 [36] | pIC50 [37] | pIC50 [38]
0.3 ×10⁻⁶ cm/s: Papp A→B [30]
160 nM: Cmax [25]
32 L/kg: Vd [6]
Not Active: inhibition (INH) (Cytochrome P450 2D6) | inhibition (INH) (Cytochrome P450 1A2) | inhibition (INH) (Cytochrome P450 2C9) | inhibition (INH) (Cytochrome P450 3A4) | inhibition (INH) (Cytochrome P450 2C19)
240 min: half-life [29]
34%: bioavailability [26]
120 min: half-life [21]
